Assays:
[1] = target: Dopamine receptor D2 (Homo sapiens, UniProt P14416); format: cell-based; conditions: Fig. 3A agonist assay
[2] = target: T1, Dopamine receptor D4 (Homo sapiens, UniProt P21917); format: cell-based; conditions: Fig. 3A agonist assay
T1 sequence (P21917 1-419): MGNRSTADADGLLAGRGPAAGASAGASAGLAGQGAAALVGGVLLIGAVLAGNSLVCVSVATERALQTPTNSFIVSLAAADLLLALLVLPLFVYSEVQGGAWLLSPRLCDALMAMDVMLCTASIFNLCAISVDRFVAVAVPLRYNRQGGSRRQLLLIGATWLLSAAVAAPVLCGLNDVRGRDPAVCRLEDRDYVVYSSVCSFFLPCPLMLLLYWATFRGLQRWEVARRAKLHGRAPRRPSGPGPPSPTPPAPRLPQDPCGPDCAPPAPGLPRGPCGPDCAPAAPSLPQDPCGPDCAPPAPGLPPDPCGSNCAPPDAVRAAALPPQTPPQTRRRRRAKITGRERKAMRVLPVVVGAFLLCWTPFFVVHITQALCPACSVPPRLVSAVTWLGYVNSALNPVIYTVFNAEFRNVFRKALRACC

[3] = target: D2 Receptor (Homo sapiens, UniProt P14416); experiment: radioligand binding, [3H]N-methylspiperone; conditions: @ 10μM (Fig. 1c)
Chain of D2 Receptor (P14416 whole entry): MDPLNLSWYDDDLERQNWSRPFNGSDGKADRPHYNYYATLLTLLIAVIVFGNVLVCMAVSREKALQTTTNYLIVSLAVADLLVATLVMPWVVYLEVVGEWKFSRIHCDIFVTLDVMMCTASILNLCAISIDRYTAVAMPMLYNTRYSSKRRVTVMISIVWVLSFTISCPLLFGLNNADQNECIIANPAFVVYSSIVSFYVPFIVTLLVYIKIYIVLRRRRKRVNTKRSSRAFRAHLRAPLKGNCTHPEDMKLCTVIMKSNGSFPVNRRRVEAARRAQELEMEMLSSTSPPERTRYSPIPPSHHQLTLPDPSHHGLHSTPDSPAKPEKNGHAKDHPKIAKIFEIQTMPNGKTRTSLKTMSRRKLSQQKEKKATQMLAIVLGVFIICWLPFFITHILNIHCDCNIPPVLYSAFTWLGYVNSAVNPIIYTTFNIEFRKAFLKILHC

[4] = target: T2, D4 Receptor (Homo sapiens, UniProt P21917); experiment: radioligand binding, [3H]N-methylspiperone; conditions: bound stated
T2 sequence (P21917 1-419): T1 sequence (P21917 1-419)

Chain of Dopamine receptor D2 (P14416 whole entry, species assumed): as the sequence (P14416 whole entry) above

Row | D2 functional mode [1] | D4 functional mode [2] | radioligand percentage inhibition D2 [3] [%] | Ki [4] [nM] | Compound
1 | inverse agonist | agonist | 96 |  | COc1cc2c(cc1OC)C(=O)N(CCCCN1CCN(c3ccccc3OC)CC1)C2 [Compound 3]
2 |  | inverse agonist | 19 |  | COc1cc2c(cc1OC)C(=O)C(CC1CCN(Cc3ccccc3)CC1)C2 (stereo not drawn) [Donepezil (Cpd 1), Donepezil, reference compound]
3 |  |  |  | < 1000 | c1cncc(OC[C@@H]2CN(CCN3CCc4ccccc43)CCO2)c1 [Compound 21s]

— publication PMC3653568 (Nature, 2012)
